Holding throughout (assay): intrinsic fluorescence quenching titration
Format in all cases: binding

Assay [1] addresses COMMD1 (Homo sapiens, UniProt Q8N668, T174M).
Assay [2] has as its target COMMD1 (Homo sapiens, UniProt Q8N668, K167E/K173E).
Assay [3] deals with COMMD1 (Homo sapiens, UniProt Q8N668).

Molecules are shown by their SMILES.

Sequence of COMMD1 (Homo sapiens, UniProt Q8N668, K167E/K173E) (Q8N668 whole entry K167E/K173E): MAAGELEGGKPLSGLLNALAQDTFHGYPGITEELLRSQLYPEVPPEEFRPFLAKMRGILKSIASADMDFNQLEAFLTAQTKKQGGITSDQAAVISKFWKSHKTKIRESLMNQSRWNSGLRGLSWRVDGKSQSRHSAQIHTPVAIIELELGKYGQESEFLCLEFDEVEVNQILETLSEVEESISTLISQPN
Sequence of COMMD1 (Homo sapiens, UniProt Q8N668) (Q8N668 whole entry): as the sequence (Q8N668 whole entry K167E/K173E) above, with E167K, E173K counted along it
Sequence of COMMD1 (Homo sapiens, UniProt Q8N668, T174M) (Q8N668 whole entry T174M): as the sequence (Q8N668 whole entry K167E/K173E) above, with E167K, E173K, T174M counted along it

For `CCCCCC(=O)OC[C@H](COP(=O)(O)O[C@@H]1[C@H](O)[C@H](O)[C@@H](OP(=O)(O)O)[C@H](OP(=O)(O)O)[C@H]1O)OC(=O)CCCCC` [PtdIns(4,5)P2], the Kd – broadly, a measure of binding affinity in units of concentration – turned out to be 62.5 nM at COMMD1 [1], 284 nM on COMMD1 [2] and 40.4 nM at COMMD1 [3].

Values taken from publication doi:10.1101/572578v1 (biorxiv, 2019).
